According to patent publication US20090298848A1, “Methods and Compositions for Treating Barth Syndrome, Cardiomyopathy, Mitochondrial Diseases and Other Conditions” (CORTENDO INVEST AB,, priority 2006, published 2009):
Like-named read-outs stand apart in the source and are kept apart here.

Experiments:
corticosterone = test: Serum corticosterone reduction after oral dosing in rats; format: in vivo; conditions: 200 mg drug/kg body weight, within 4 hours of oral dosing
hepatic cardiolipin = test: Measurement of hepatic cardiolipin following 91 days dosing in Beagle dogs; format: in vivo; conditions: male Beagle dogs, vs placebo
Procedure: Male Beagle dogs were treated with empty gelatin capsules (Placebo) or gelatin capsules containing sufficient 2S,4R enantiomer of ketoconazole to provide a dose of 20 mg/kg body weight. After 91 days of therapy, the amount of cardiolipin present in the livers of the dogs was determined. The amount of cardiolipin with fatty acids of the different indicated classes was determined independently. SFA, saturated fatty acids; MUFA, […] fatty acids; PUFA, poly-unsaturated fatty acid; n3, fatty acids in which the first double bond is at C3; n6, fatty acids in which the first double bond is at C6; n9, fatty acids in which the first double bond is at C9.
Male Beagle dogs were treated with empty gelatin capsules (Placebo) or gelatin capsules containing sufficient 2S,4R enantiomer of ketoconazole to provide a dose of 20 mg/kg body weight. After 91 days of therapy, the amount of cardiolipin present in the livers of the dogs was determined. The amount of cardiolipin with fatty acids of the different indicated classes was determined independently. The different classes are arranged according to the proportion that they are found in the placebo treated animals.
The effect of the 2S,4R enantiomer of ketoconazole enantiomers on cardiolipin levels in Beagle dogs was determined. The dogs were approximately 6-7 months of age at the initiation of the experiment and weighed 8-10 kg. To generate the results shown in FIGS. 1 and 2, eight male beagle dogs were used. Four of these dogs were dosed daily with an empty capsule, and four dogs were dosed with a gelatin capsule containing sufficient 2S,4R enantiomer of ketoconazole for each dog to receive 20 mg/kg body weight of the 2S,4R enantiomer of ketoconazole. The capsules were prepared weekly, placed in a labeled pill bottle and stored at 23° C.±3° C. until dispensed for dosing. […] Lipid content of the livers was determined using a combination of high pressure liquid chromatography (HPLC) and mass spectrometry. […]

[1] = Toxicology of DIO-902 in dogs, oral dosing for 28 days; conditions: oral doses up to 20 mg/kg/day for 28 days
[2] = Oral pharmacokinetics in dogs
plasma cholesterol = test: Plasma cholesterol suppression in rats; format: in vivo; conditions: 200 mg drug/kg body weight
[3] = normal volunteers, 200 mg dose of the racemic mixture, oral; cited from earlier work
testosterone = test: Testosterone suppression after single dose in rats; format: in vivo
[4] = in vivo, cited from earlier work
[5] = cited from earlier work
[6] = patients with Cushing's syndrome

## CC(=O)N1CCN(c2ccc(OC[C@@H]3CO[C@@](Cn4ccnc4)(c4ccc(Cl)cc4Cl)O3)cc2)CC1 (relative stereo) [DIO-902, 2S,4R cis-1-acetyl-4-[4-[[2-(2,4-dichlorophenyl)-2-(1H-imidazol-1-ylmethyl)-1,3-dioxolan-4-yl]methoxyl]phenyl]piperazine]
corticosterone
  serum corticosterone level: 25 % of basal
Hepatic cardiolipin; 20 mg/kg body weight daily in gelatin capsule
  amount of cardiolipin in the livers as a function of the liver wet weight: increased cardiolipin levels
Hepatic cardiolipin; 20 mg/kg
  hepatic cardiolipin by fatty acid carbon chain length and bond number, FIG. 2: able to increase the levels of cardiolipin that contain fatty acids of a wide variety of carbon chain length with different numbers of carbon bonds
  hepatic cardiolipin by fatty acid class (SFA, MUFA, PUFA, n3, n6, n9), FIG. 1: able to increase the levels of cardiolipin that contain both saturated and unsaturated fatty acids
[1]
  body weight: reduction in body weight
  cholesterol: trend to a decrease in cholesterol
  food intake: reduction in food intake
  other serum chemistry and hematological parameters: no noted changes
[2]
  oral availability: orally available
Plasma cholesterol
  plasma cholesterol: suppresses plasma cholesterol
[3]
  maximum plasma concentration: approximately 3.6 μg/mL
  time of maximum plasma concentration: 2 h
testosterone; 200 mg drug/kg body weight
  time for testosterone levels to return to normal: ≤ 8 h
  time to testosterone suppression after dosing: within four hours
testosterone; single dose 200 mg drug/kg body weight
  testosterone level: 10 % of basal

## CC(=O)N1CCN(c2ccc(OCC3COC(Cn4ccnc4)(c4ccc(Cl)cc4Cl)O3)cc2)CC1 (racemic) [racemic ketoconazole, 1-acetyl-4-[4-[[2-(2,4-dichlorophenyl)-2-[(1H-imidazol-1-yl)-methyl]-1,3-dioxolan-4-yl]methoxy]phenyl]piperazine]
[4]
  1,25 dihydroxy Vitamin D: reduces
  hepatotoxicity: associated with hepatotoxicity
  testosterone: reduces
[4]; listed as racemic mixture
  hepatotoxicity: can cause hepatoxicity
[5]; human, in vivo
  cortisol synthesis: inhibits cortisol synthesis
  plasma cortisol: decrease plasma cortisol
[5]; humans (Sonino et al. 1991; Gylling et al. 1993)
  cholesterol levels in humans: lower cholesterol levels
[5]; [6]
  blood pressure: reduces
  cholesterol: reduces
  glucose: reduces
